Results as given in article PMC6956158, “In Vitro and In Vivo Assessment of Metabolic Drug Interaction Potential of Dutasteride with Ketoconazole” (Pharmaceutics, 2019).
Read-outs that look alike come from different tables or passages of the source.

Legend:
[1] = In vivo pharmacokinetic study in rats, intravenous DUT without or with intravenous KET; set-up: species or system rat; settings: for AUC(0-inf) / half-life / clearance / Vd: male, Sprague-Dawley, rat, iv, 2.5 mg/kg; for AUC(0-inf) / half-life: n = 4; for Vd: n = 4, read-out: Vss
Text: The animal experiment protocols used in the present study were approved by the Pusan National University-Institutional Animal Care and Use Committee for scientific care and ethical procedures (Busan, Korea; approval date: 01/05/2018; approval number: PNU-2018-1848). Male Sprague–Dawley rats (8-week-old; approximately 250 g) were purchased from DBL Co., Ltd. (Incheon, Korea). The rats were acclimatized in a clean room of the Laboratory Animal Center of Pusan National University (Busan, Korea) for 1 week. Then, they were fasted for 12 h prior to the pharmacokinetic experiment and then anesthetized by intramuscular injection of Zoletil at a dose of 20 mg/kg. The femoral vein and artery of the rats were cannulated with a polyethylene tube (BD Medical; Franklin Lakes, NJ, USA). At approximately 4–6 h after the surgery for cannulation, an intravenous dose of DUT (2.5 mg/kg) simultaneously with or without intravenous KET (20 mg/kg) or an oral dose of DUT (5 mg/kg) simultaneously with or without intravenous KET (20 mg/kg) was administered to the rats. Drugs were dissolved in a vehicle consisting of dimethyl sulfoxide, ethanol, and polyethylene glycol 400 at a ratio of 10:5:85 (v/v/v). Blood (approximately 200 μL) was collected in heparin pre-treated microcentrifuge tubes via the femoral artery at 0, 1, 5, 15, 30, 60, 120, 180, 240, 360, 480, and 1200 min after the intravenous dose and at 0, 5, 15, 30, 60, 120, 150, 180, 240, 360, 480, and 1200 min after the oral dose. Following centrifugation of the blood samples at 3000× g at 4 °C for 10 min [19], 100 μL aliquots of plasma were stored at −80 °C.
The half maximal inhibitory concentration (IC50) of KET for the inhibition of the DUT metabolism was determined by the nonlinear regression analysis (GraphPad Prism ver. 5.01; GraphPad Software Inc., San Diego, CA, USA) based on the following Hill equation: y = Min + Max−Min/1 + (x/IC50)^-P where Max and Min are the initial and final y value, respectively, and the exponent P represents the Hill coefficient. Peak plasma concentration (Cmax) and time to reach Cmax (Tmax) were read directly from the observed data. Non-compartmental analysis was conducted to estimate pharmacokinetic parameters such as total area under plasma concentration versus time curve from time zero to time of last sampling (AUClast), total area under plasma concentration versus time curve from time zero to infinity (AUCinf), total plasma clearance (CL), volume of distribution at steady state (Vss), and terminal half-life (t1/2) using the NCA200 and 201 models of WinNonlin ver. 3.1 (Certara USA Inc., Princeton, NJ, USA).

[2] = Blood-to-plasma concentration ratio (RB), blood distribution; type: in vitro ADME; settings: rat, fresh rat blood, 37 °C
Method: (§1) To investigate the metabolic interaction potential between DUT and KET, the disappearance of DUT (5 μM) in RLM and HLM was determined under the absence and presence of KET at various concentrations ranging from 1 to 5000 nM. A microsomal reaction mixture was prepared as follows (total volume: 0.2 mL): 1 mM NADPH, 10 mM MgCl2, substrate (DUT), and inhibitor (KET), RLM or HLM (1 mg/mL), and 50 mM phosphate buffer. At 0 and 90 min after starting the metabolic reaction, a 50 μL aliquot of microsomal incubation mixture was sampled and immediately transferred into a clean 1.5 mL microcentrifuge tube containing 100 μL cold ACN with an internal standard (celecoxib at 400 ng/mL) to stop the metabolic reaction. After vortex mixing and centrifugation at 15,000× g for 10 min, a 100 μL aliquot of the supernatant was stored at −80 °C. The unbound fractions of DUT in rat plasma, RLM, human plasma, and HLM were measured using a rapid equilibrium dialysis (RED) device (Thermo Fisher Scientific, Inc., Waltham, MA, USA) as described in a previous study. […] The fraction unbound was calculated as the ratio of the drug concentrations in the “buffer” chamber to those in the “sample” chamber. The blood-to-plasma concentration ratio (RB) of DUT was determined as described previously. […] The concentrations of DUT in the plasma sample were determined by the validated HPLC analysis.

[3] = Unbound fraction by rapid equilibrium dialysis, rat plasma; type: in vitro ADME
Method: as §1

type-1 5AR = system: type-1 5AR; set-up: method as in PMID 16964191, PMID 16719800; settings: previous in vitro studies; cited from earlier work
[4] = plasma, intravenous DUT 2.5 mg/kg with intravenous KET 20 mg/kg
[5] = plasma, intravenous DUT 2.5 mg/kg, DUT alone

C[C@]12C=CC(=O)N[C@@H]1CC[C@@H]1[C@@H]2CC[C@]2(C)[C@@H](C(=O)Nc3cc(C(F)(F)F)ccc3C(F)(F)F)CC[C@@H]12 [DUT, Dutasteride]
hepatic extraction ratio ([1]; calculated as CLH/QH, QH 50–80 mL/min/kg): 0.039–0.062 | AUC(0-inf) [1, 4]: 41800 ng·h/mL | half-life [1, 4]: 3060 ± 359 min | clearance ([1]; plasma, intravenous DUT 2.5 mg/kg with intravenous KET 20 mg/kg, n = 4, read-out: CL): 1.02 ± 0.16 mL/min/kg | Vd [1, 4]: 4.41 ± 0.373 L/kg | AUC(0-inf) [1, 5]: 19100 ng·h/mL | half-life [1, 5]: 1610 ± 196 min | clearance ([1]; plasma, intravenous DUT 2.5 mg/kg, DUT alone, n = 4, read-out: CL): 2.19 ± 0.16 mL/min/kg | Vd [1, 5]: 4.9 ± 0.326 L/kg | clearance ([1]; whole blood, intravenous DUT 2.5 mg/kg, calculated as CL/RB, mean value, read-out: total blood clearance (CLB)): 3.08 mL/min/kg | blood plasma ratio at 60 min, 5 μM ([2]; DUT 5 μM alone): 0.712 ± 0.026 | blood plasma ratio at 60 min, 5 μM ([2]; DUT 5 μM in the presence of KET 5 μM): 0.692 ± 0.036 | fraction of unbound DUT, presence versus absence of KET ([3]; DUT and KET 5 μM, n = 5): no significant differences | fraction unbound at 5 μM ([3]; Sprague-Dawley, DUT 5 μM, RED device): 0.0115 | more potent inhibition of type-1 5AR compared to finasteride (type-1 5AR): 45 fold
